Where only a bound is given, the exact number is not on record here.

Data on seven substances can be found in patent US20050069907A1, “Methods for using double-mutant RNA polymerases with reduced discrimination between non-canonical and canonical nucleoside triphosphates” (priority 2002, published 2005).

What all share (assay type): biochemical
The subject of data set [1] is poly(dC). Description: Apparent miscoding on homopolymeric template poly(dC). To be noted: for Relative rate of incorporation GTP/ATP / Relative rate of incorporation GTP/CTP / Relative rate of incorporation GTP/UTP / Relative rate of incorporation of rGTP vs non-complementary rNTPs: poly(dC); for Relative rate of incorporation GTP/ATP / Relative rate of incorporation GTP/CTP / Relative rate of incorporation GTP/UTP: Mg^2+ buffer. Here is the method: (§1) Transcription reactions: Transcription reactions were carried out in 40 mM Tris-Cl pH 8.0, 15 mM MgCl2, and 5 mM DTT or 20 mM Manganese Citrate pH 8.0, 5 mM DTT at 37° C. Template, polymerase, and NTP concentrations were as indicated in the legends to the figures and tables. Relative activity determinations were made by taking 4 μl aliquots of reactions at 5, 10, and 20 minute time points and spotting on to DE81 filter paper. Unincorporated nucleotides were separated from incorporated nucleotides by washing the filter paper with 0.5 M KH2PO4 pH 7.0 and retained radioactive nucleotide was quantitated with a Molecular Dynamics phosphorimager. To evaluate rNTP/dNTP selectivity, reactions were run with 4 rNTPs and pT75 as template and α-P^32 rNTPs or α-P^32 dNTPs were used to label the transcripts. The relative rate of incorporation of an rNTP vs. its cognate dNTP was determined from the relative percentages of labeled rNTP vs. dNTP incorporated into DE81 retainable RNA at 5, 10, and 20 minute time points. Apparent miscoding frequencies were determined similarly, though in this instance the template was a single-stranded homopolymer and the reaction contained the complementary unlabeled rNTP, and complementary α-P^32 rNTP or one of the 3 non-complementary α-P^32 rNTPs. The relative percentages of labeled complementary vs. non-complementary rNTPs incorporated at 5, 10 and 20 minute time points gave an apparent miscoding rate. The rNTP/dNTP selectivity assay was used to test the following T7 RNAP mutants for effects on substrate discrimination: D537S, D537E, S539A, R5S1S, D552S, R627S, K631S, L637A, Y639S, Y639F, Y639A, G640A, F644A, G645A, Q649S, […], H811S, H811A, D812A, D812E, D812S, D812N, D879E+ΔF882+ΔA883, D879E+A881T+ΔA883, D879E+F884+A885, D879E+F882Y, D879E+ΔA883, D879E+F882W, D879E.
An increase in miscoding would be reflected in an increase in the rate of incorporation of the non-complementary NTP into RNA.
Numbers are averages from 2 experiments and reflect the ratio of the percentages of labeled rNTPs incorporated into RNA in reactions in which unlabeled complementary rNTPs were in great excess (0.5 mM) to labeled complementary or non-complementary rNTPs. Templates were at 0.1 mg/ml. Polymerases were at 10^−8 M in Mg^2+ buffer and 10^−7 M in Mn^2+ buffer.
*The upper number refers to results obtained in Mg^2+ buffer, the lower number to results in Mn^2+ buffer. n.d.: G640A, Y639A, Y639S were poorly active in Mn^2+ buffer, or on poly(dT) under all conditions.

Data set [2] relates to poly(dI)·poly(dC). Description: Relative activity on poly(dI)·poly(dC). Here is the method: as §1
DNA and RNA synthesis on homopolymeric templates: T7 RNAP will synthesize poly(rG) RNAs on poly(dC) templates (Bonner, et al., 1994; Ikeda and Richardson 1987). The activity of the W.T. and mutant polymerases were measured on poly(dI)-poly(dC) with rGTP, dGTP, dGTP+rGMP (see, Table III).
Numbers give mean and range from 3 experiments. Templates were at 0.2 mg/ml, polymerases at 10^-8 M. Labeling NTPs were α-P^32 rGTP, α-P^32 dGTP, α-P^32 rATP, α-P^32 dATP, as appropriate. rNTPs or rNMPs at 0.5 mM; dNTPs at 1 mM.

A short description of data set [3]: 2′-group discrimination of M635 mutants. To be noted: wild-type or Y639F T7 RNAP background. Here is the method:
Other mutations: It is conceivable that, in the absence of a bound rNTP, a hydrogen bond forms between Y639 and some other active site side chain. The possibility of an interaction between M635 and Y639 was tested since M635 and Y639 are close and M635 approaches the ribose in our models of NTP in T7 RNAP (Huang, et al., submitted for publication). This position is methionine in the T7 RNAP class of RNAPs (McAllister, W.T., 1993), but is either tyrosine or phenylalanine in the homologous DNAPs, and in the DNAP mutants at this site (i.e., positions homologous to position 762 in E. coli DNAP I) that affect dNTP/ddNTP discrimination (Tabor. S., and Richardson, C. C., European patent application, 1994). […] Additional studies will reveal whether these M635 mutations have other effects, such as effects on discrimination at the 3′-position of the sugar, or effects on discrimination with respect to NTPs with other substituents, such as fluorine at the 2′ position of the sugar. Also, studies on similar double mutations at the homologous sites in the homologous class I DNAPs will reveal the effects of such double mutations on discrimination at the 2′- and 3′-positions of the sugar; specifically, these studies will reveal whether class I DNAPs having a phenylalanine at the position homologous to amino acid position 766 in E. coli DNAP I have reduced discrimination for rNTPs if the amino acid is methionine or tyrosine at the position homologous to amino acid position 762 in E. coli DNAP I.

The test system of data set [4] is pT75. The data set is described as follows: Activity with NTPs containing different 2′-substituents. Details: unit not given here. As for the experimental part: Activity was determined with pT75 as template but with one of the rNTPs replaced with a dNTP or a 2′-modified NTP. The labeling NTP was UTP (in reactions with 2′-modified CTPs or ATPs) or CTP (in reactions with 2′-modified UTPs). Y639F and Y639M represent enzymes with substitutions of the wild-type (W.T.) tyrosine at position 639 by phenyalanine (F) or methionine (M), respectively.

The mark [5] stands for this setting: rGTP, mean and range from 3 experiments.

“G640A: T7 RNAP mutant adjacent to Y639 that does not affect substrate discrimination [reference compound]”: in data set [1], the “Activity in Mn^2+ buffer, or on poly(dT) under all conditions” value (shortened to “Activity in Mn^2+ buffer, or on poly(dT)”) is reported as “poorly active”; the “Relative rate of incorporation GTP/ATP” value is on record as 388; the “Relative rate of incorporation GTP/CTP” value stood at 508; the “Relative rate of incorporation GTP/UTP” value is given as >1320. Further, in data set [2] (dGTP), the “Relative activity on poly(dI)·poly(dC)” value was <5. In addition, the “Relative activity on poly(dI)·poly(dC)” value in data set [2] (dGTP + rGMP) is reported as <5. Besides, the “Relative activity on poly(dI)·poly(dC)” value in data set [2] (setting [5]) is recorded as 240 (200-270).
Take M635A: T7 RNAP M635 mutant: the “2′-group discrimination with respect to dNTPs and rNTPs” value (“2′-group discrimination” below) in data set [3] is recorded as “did not affect 2′-group discrimination”.
With M635F: T7 RNAP M635 mutant, in data set [3], the “2′-group discrimination” value is “did not affect 2′-group discrimination”.
Turning to M635Y: T7 RNAP M635 mutant, in data set [3], the “2′-group discrimination” value was “did not affect 2′-group discrimination”.
As to “Y639A: poorly active non-conservative tyrosine 639 mutation of T7 RNAP”, in data set [1], the “Activity in Mn^2+ buffer, or on poly(dT)” value is given as “poorly active”; the “Relative rate of incorporation of rGTP vs non-complementary rNTPs” value is on record as 184 fold; the “Relative rate of incorporation GTP/ATP” value is >184; the “Relative rate of incorporation GTP/CTP” value was >184. Also, the “Relative rate of incorporation GTP/UTP” value in data set [1] is given as >184. Further, the “Relative activity on poly(dI)·poly(dC)” value in data set [2] (dGTP) is listed as 5.3 (4.8-5.5). Also, the “Relative activity on poly(dI)·poly(dC)” value in data set [2] (dGTP + rGMP) is reported as 25 (17-30). Besides, in data set [2] (setting [5]), the “Relative activity on poly(dI)·poly(dC)” value was 145 (142-151).
With “Y639M: T7 RNAP with tyrosine at position 639 substituted by methionine”, the Activity in data set [4] (2′-F-ATP replacing ATP) is 9.7 ± .20; in data set [4] (2′-F-CTP replacing CTP) it was 47 ± .70; in data set [4] (2′-F-UTP replacing UTP), 23 ± .72; in data set [4] (2′-NH2-ATP replacing ATP) it was “.92 ± .035”; in data set [4] (2′-NH2-CTP replacing CTP), 21 ± .38; in data set [4] (2′-NH2-UTP replacing UTP), 3.6 ± .19. Further, the Activity in data set [4] (2′-dATP replacing ATP) was 3.2 ± .11; in data set [4] (2′-dCTP replacing CTP) it was 32 ± 1.1; in data set [4] (2′-dUTP replacing UTP) it was 11 ± .46; in data set [4] (ATP) it was 51 ± 1.3; in data set [4] (CTP), 54 ± 3.9; in data set [4] (UTP) it was 50 ± 1.2.
For the substance “Y639S: poorly active non-conservative tyrosine 639 mutation of T7 RNAP”, in data set [1], the “Activity in Mn^2+ buffer, or on poly(dT)” value is “poorly active”; the “Relative rate of incorporation of rGTP vs non-complementary rNTPs” value is on record as 50 fold; the “Relative rate of incorporation GTP/ATP” value is >50; the “Relative rate of incorporation GTP/CTP” value was >50. In data set [1], the “Relative rate of incorporation GTP/UTP” value is recorded as >50. For the same substance, the “Relative activity on poly(dI)·poly(dC)” value in data set [2] (dGTP) is “.6”. Moreover, in data set [2] (dGTP + rGMP), the “Relative activity on poly(dI)·poly(dC)” value came out at 4.4. Moreover, in data set [2] (setting [5]), the “Relative activity on poly(dI)·poly(dC)” value is reported as 48 (47-50).
